Measurements published in ChEMBL document CHEMBL1201862, “PubChem BioAssay data set” (2004).
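Five compound concentrations were applied to cells in 96-well plates for 48 hours; endpoints were derived by simple linear interpolation of the resulting dose-response curve. GI50 = concentration required for 50% inhibition of growth.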 Calls of active or inactive are those of the source. Rule as the data show it: active = GI50 up to about 1.1 µM and inactive = higher.

Legend:
Assay in all cases: growth of human tumour cells (NCI), 48 h
786-0 = tested on: 786-0
A498 = tested on: A498
A549 = tested on: A549
CAKI-1 = tested on: CAKI-1
CCRF-CEM = tested on: CCRF-CEM
COLO 205 = tested on: COLO 205
DU-145 = tested on: DU-145
EKVX = tested on: EKVX
HCT-116 = tested on: HCT-116
HL-60 = tested on: HL-60
HOP-62 = tested on: HOP-62
HOP-92 = tested on: HOP-92
HT-29 = tested on: HT-29
Hs-578T = tested on: Hs-578T
IGROV-1 = tested on: IGROV-1
K562 = tested on: K562
KM12 = tested on: KM12
LOX IMVI = tested on: LOX IMVI
M14 = tested on: M14
MCF7 = tested on: MCF7
MDA-MB-231 = tested on: MDA-MB-231
MDA-MB-435 = tested on: MDA-MB-435
MDA-N = tested on: MDA-N
MOLT-4 = tested on: MOLT-4
Malme-3M = tested on: Malme-3M
NCI-H226 = tested on: NCI-H226
NCI-H23 = tested on: NCI-H23
NCI-H460 = tested on: NCI-H460
NCI-H522 = tested on: NCI-H522
NCI/ADR-RES = tested on: NCI/ADR-RES
OVCAR-3 = tested on: OVCAR-3
OVCAR-4 = tested on: OVCAR-4
OVCAR-5 = tested on: OVCAR-5
PC-3 = tested on: PC-3
RPMI-8226 = tested on: RPMI-8226
RXF 393 = tested on: RXF 393
SF-268 = tested on: SF-268
SF-295 = tested on: SF-295
SF-539 = tested on: SF-539
SK-MEL-2 = tested on: SK-MEL-2
SK-MEL-5 = tested on: SK-MEL-5
SK-OV-3 = tested on: SK-OV-3
SN12C = tested on: SN12C
SNB-19 = tested on: SNB-19
SNB-75 = tested on: SNB-75
SR = tested on: SR
SW-620 = tested on: SW-620
T47D = tested on: T47D
TK-10 = tested on: TK-10
U-251 = tested on: U-251
UACC-257 = tested on: UACC-257
UACC-62 = tested on: UACC-62
UO-31 = tested on: UO-31

Measured: GI50

CC(C)(C)OC(=O)n1cc(C2CNC(=O)C23CCC(=O)N3Cc2ccccc2)c2ccccc21 (stereo not drawn)
inactive: 786-0 24.7 µM | A498 20 µM | A549 18.7 µM | CAKI-1 36.9 µM | CCRF-CEM 25.9 µM | COLO 205 15.8 µM | DU-145 20.4 µM | EKVX 22.4 µM | HCT-116 32.7 µM | HL-60 28.1 µM | HOP-62 24.8 µM | HOP-92 10.9 µM | HT-29 19.1 µM | Hs-578T 29.9 µM | IGROV-1 17.3 µM | K562 41.1 µM | KM12 25.5 µM | LOX IMVI 19.8 µM | M14 27.4 µM | MCF7 27.9 µM | MDA-MB-231 16.8 µM | MDA-MB-435 20 µM | MDA-N 28.2 µM | MOLT-4 36.9 µM | Malme-3M 21.9 µM | NCI-H226 19.9 µM | NCI-H23 23.2 µM | NCI-H460 20.7 µM | NCI-H522 17.8 µM | NCI/ADR-RES 32.4 µM | OVCAR-3 19.2 µM | OVCAR-4 18.7 µM | OVCAR-5 19.5 µM | PC-3 25.6 µM | RPMI-8226 18.7 µM | RXF 393 21.9 µM | SF-268 31.6 µM | SF-295 17.7 µM | SF-539 19.4 µM | SK-MEL-2 17.2 µM | SK-MEL-5 16.9 µM | SK-OV-3 26.2 µM | SN12C 16.7 µM | SNB-19 33.3 µM | SNB-75 18.1 µM | SR 32.4 µM | SW-620 33.5 µM | T47D 26 µM | TK-10 17.1 µM | U-251 18.7 µM | UACC-257 27 µM | UACC-62 17.5 µM | UO-31 22.1 µM
